We go through six compounds from ChEMBL document CHEMBL5465560, “Selectivity Literature for EUbOPEN Chemogenomic Library” (2024).

The subject of experiment [1] is Mast/stem cell growth factor receptor Kit (Homo sapiens), P10721 [L576P]. The settings on record: at 10 µM.
The target of experiment [2] is T1, Receptor-interacting serine/threonine-protein kinase 4 (Homo sapiens) (UniProt P57078).
T1 sequence (whole entry): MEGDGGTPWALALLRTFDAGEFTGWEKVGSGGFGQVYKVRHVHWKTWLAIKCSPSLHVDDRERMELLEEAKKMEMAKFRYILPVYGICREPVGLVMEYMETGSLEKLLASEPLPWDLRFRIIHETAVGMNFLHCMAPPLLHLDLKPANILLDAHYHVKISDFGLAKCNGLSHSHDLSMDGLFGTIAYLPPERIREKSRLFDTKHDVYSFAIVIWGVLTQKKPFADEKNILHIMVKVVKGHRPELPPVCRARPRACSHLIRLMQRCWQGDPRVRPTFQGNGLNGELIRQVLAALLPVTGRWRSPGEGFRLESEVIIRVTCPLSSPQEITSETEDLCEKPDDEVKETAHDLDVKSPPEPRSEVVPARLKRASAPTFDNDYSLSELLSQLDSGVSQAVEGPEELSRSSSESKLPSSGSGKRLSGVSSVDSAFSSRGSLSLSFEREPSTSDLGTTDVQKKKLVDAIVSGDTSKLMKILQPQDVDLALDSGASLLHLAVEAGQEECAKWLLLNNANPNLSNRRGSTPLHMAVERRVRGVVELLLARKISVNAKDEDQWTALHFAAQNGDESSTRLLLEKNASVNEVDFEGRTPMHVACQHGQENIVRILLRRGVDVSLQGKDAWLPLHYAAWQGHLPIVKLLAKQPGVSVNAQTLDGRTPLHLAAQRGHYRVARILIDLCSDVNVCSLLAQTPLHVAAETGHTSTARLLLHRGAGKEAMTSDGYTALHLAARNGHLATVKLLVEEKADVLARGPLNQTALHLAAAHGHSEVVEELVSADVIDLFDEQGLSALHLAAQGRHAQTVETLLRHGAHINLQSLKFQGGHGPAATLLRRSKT
Briefly: Selectivity interaction (KinomeScan (DiscoverX)) EUB0000092b RIPK4. The settings on record: at 10 µM.

The target of experiment [3] is Mitogen-activated protein kinase kinase kinase kinase 5 (Homo sapiens) (UniProt Q9Y4K4). Briefly: Selectivity interaction (KinomeScan (DiscoverX)) EUB0001550a MAP4K5. The following applies: at 1 µM.
For experiment [4], the target named is T2, Mitogen-activated protein kinase kinase kinase 15 (Homo sapiens) (UniProt Q6ZN16).
T2 sequence (whole entry): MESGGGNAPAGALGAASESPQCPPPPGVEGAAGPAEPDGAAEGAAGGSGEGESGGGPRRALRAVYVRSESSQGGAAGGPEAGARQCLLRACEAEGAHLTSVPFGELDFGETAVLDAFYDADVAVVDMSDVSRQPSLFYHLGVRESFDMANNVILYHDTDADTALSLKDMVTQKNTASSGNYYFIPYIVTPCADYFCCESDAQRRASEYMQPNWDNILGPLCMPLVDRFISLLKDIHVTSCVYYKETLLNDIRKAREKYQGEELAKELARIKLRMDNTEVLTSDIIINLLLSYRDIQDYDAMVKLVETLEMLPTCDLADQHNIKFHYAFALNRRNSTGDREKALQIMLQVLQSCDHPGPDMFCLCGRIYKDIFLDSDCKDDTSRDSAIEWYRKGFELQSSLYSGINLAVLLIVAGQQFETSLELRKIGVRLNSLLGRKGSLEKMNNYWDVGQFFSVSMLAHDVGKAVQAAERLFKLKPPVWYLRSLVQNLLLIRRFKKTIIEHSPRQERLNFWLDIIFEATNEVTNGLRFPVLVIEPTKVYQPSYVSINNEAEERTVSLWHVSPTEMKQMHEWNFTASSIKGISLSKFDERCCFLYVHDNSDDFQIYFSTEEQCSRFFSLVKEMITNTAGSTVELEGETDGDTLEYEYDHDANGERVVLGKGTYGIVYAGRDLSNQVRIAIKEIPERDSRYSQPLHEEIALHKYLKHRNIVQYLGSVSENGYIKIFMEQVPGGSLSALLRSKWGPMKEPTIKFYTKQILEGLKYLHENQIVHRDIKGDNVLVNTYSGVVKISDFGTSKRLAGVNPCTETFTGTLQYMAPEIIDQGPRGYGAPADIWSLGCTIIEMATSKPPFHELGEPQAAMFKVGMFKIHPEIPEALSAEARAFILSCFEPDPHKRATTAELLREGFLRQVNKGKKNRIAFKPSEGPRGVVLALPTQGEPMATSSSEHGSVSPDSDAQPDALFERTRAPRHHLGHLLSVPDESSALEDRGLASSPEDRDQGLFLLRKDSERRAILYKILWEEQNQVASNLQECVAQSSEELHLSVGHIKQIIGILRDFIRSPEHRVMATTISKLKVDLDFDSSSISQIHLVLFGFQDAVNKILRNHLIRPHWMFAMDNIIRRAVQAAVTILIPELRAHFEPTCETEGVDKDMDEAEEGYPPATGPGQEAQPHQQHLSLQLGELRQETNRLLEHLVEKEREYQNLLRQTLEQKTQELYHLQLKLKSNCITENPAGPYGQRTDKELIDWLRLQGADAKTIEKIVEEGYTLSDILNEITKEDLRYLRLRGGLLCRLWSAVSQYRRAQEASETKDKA
Nature of the experiment: Selectivity interaction (KinomeScan (DiscoverX)) EUB0000607a MAP3K15. The following applies: at 10 µM.

In another experiment the target is Misshapen-like kinase 1 (Homo sapiens, UniProt Q8N4C8). Briefly: Selectivity interaction (Kinase panel (Invitrogen)) EUB0000639a MINK1. The following applies: at 200 nM.
The target of experiment [5] is Serine/threonine-protein kinase OSR1 (Homo sapiens) (UniProt O95747). Briefly: Selectivity interaction (Kinase panel (KiNativ target engagement assay in Jurkat cells)) EUB0001635a OXSR1. The format is cell-based. The settings on record: Selectivity number of off-targets 0.0, Selectivity number of targets 233.0, Source Knowledge https://www.sciencedirect.com/science/article/pii/S2451945619300674?via%3Dihub, at 1 µM.

Each structure is given as a SMILES string.

Sequence of Mitogen-activated protein kinase kinase kinase kinase 5 (Homo sapiens) (Q9Y4K4 whole entry, looked up): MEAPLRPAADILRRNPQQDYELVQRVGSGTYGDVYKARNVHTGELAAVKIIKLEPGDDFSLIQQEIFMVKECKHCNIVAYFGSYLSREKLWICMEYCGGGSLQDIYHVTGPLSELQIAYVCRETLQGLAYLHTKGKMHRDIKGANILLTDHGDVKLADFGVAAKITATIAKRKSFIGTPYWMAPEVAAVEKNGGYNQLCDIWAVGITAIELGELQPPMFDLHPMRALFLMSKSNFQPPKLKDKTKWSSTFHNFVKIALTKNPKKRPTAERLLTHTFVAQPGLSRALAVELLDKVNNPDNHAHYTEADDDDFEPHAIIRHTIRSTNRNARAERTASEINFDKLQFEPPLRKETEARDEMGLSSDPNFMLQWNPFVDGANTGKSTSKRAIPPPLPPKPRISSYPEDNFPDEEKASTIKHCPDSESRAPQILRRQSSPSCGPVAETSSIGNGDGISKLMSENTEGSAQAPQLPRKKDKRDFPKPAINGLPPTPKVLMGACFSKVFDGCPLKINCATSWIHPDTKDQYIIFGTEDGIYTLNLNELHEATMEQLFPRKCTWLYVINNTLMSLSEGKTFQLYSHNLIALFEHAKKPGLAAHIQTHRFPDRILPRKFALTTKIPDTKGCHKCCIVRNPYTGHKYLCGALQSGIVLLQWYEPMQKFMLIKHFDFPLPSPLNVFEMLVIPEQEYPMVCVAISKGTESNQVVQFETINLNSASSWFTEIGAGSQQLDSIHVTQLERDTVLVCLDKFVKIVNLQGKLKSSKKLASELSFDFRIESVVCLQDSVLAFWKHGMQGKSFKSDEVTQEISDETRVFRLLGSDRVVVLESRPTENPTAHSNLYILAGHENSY
Sequence of Mast/stem cell growth factor receptor Kit (Homo sapiens), P10721 [L576P] (P10721 whole entry L576P): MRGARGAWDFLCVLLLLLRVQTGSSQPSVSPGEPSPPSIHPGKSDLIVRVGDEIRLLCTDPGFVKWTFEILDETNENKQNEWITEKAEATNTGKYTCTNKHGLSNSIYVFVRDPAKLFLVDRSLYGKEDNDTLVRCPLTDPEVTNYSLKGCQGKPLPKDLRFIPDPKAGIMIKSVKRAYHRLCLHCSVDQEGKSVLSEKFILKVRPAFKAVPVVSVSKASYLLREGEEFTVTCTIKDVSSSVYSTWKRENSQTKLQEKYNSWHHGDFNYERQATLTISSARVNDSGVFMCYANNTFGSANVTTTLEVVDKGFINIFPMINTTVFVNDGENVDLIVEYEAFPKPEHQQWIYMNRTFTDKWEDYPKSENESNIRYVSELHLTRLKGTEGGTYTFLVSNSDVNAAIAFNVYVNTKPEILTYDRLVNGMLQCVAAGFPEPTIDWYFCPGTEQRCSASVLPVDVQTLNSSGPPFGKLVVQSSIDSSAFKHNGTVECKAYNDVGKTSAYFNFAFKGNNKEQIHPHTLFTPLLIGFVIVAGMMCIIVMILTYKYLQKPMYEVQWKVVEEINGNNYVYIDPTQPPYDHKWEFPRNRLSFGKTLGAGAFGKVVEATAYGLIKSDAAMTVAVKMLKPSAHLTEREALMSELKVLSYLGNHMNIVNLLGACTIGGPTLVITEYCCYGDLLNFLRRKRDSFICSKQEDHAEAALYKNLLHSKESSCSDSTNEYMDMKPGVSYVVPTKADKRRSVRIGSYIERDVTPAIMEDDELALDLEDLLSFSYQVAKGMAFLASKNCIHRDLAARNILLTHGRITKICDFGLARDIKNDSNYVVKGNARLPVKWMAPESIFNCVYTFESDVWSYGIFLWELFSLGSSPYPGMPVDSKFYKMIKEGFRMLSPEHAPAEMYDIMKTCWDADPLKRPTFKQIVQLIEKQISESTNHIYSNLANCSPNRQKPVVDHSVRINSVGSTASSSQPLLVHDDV
Sequence of Serine/threonine-protein kinase OSR1 (Homo sapiens) (O95747 2-527 limits assumed): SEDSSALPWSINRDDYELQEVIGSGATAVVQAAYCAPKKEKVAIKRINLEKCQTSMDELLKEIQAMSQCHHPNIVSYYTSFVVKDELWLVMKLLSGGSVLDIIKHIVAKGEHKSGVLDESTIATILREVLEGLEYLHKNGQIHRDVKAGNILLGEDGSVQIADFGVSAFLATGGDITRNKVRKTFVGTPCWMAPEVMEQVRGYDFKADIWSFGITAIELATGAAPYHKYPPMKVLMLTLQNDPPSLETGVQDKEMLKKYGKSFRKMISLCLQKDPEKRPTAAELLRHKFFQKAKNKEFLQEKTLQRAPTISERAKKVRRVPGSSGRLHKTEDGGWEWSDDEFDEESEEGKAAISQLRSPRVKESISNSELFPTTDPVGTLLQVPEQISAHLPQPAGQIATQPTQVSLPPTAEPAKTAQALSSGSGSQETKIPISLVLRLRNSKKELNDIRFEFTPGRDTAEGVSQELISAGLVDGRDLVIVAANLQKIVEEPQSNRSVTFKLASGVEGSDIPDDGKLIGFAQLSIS
Sequence of Misshapen-like kinase 1 (Q8N4C8 whole entry, looked up): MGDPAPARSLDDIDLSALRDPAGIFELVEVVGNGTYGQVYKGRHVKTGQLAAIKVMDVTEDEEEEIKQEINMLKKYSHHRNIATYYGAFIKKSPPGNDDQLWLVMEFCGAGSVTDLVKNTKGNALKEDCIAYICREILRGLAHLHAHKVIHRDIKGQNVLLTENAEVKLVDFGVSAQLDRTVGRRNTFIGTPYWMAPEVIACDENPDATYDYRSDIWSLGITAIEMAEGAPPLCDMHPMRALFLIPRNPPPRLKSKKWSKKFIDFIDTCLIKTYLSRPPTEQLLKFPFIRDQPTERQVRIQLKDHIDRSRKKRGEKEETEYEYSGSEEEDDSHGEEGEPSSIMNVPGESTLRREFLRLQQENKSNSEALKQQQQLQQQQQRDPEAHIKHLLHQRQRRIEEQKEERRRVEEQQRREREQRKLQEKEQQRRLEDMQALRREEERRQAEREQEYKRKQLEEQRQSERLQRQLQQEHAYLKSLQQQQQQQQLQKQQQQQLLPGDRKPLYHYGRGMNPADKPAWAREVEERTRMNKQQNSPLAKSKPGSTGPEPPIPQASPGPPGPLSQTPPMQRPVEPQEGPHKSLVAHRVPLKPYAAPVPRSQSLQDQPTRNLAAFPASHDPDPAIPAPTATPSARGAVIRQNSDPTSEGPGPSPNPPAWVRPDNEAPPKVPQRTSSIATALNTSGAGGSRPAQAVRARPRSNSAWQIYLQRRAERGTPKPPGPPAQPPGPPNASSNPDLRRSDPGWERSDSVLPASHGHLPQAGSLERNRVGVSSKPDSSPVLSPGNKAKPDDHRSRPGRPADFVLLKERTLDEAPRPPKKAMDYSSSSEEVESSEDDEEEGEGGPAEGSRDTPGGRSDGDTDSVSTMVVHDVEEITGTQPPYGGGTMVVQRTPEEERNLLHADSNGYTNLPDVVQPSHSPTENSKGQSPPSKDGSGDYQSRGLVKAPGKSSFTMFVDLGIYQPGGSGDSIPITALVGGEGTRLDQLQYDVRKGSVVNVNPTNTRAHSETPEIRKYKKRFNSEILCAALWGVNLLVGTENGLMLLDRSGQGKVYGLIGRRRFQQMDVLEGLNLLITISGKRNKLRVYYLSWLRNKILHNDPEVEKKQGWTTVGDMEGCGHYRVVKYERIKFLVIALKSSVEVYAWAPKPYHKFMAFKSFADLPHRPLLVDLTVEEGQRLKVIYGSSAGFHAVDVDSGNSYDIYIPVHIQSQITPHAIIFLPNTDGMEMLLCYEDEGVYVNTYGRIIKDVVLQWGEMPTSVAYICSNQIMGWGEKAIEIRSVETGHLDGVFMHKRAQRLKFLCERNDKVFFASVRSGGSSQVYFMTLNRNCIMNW

In turn, `Cc1cc([C@@H](C)Nc2ccccc2C(=O)O)c2nc(N3CCOCC3)cc(=O)n2c1` [AZD-6482] gave a % of control in experiment [1] of 95%.
With `CCC(=O)N1CCN(c2ccc(-n3c(=O)ccc4cnc5ccc(-c6cnc7ccccc7c6)cc5c43)cc2C(F)(F)F)CC1`, the % of control in experiment [2] was determined as 100%.
`CN(C)CC#Cc1ccc2[nH]c3c(c2c1)-c1nc(N)ncc1CCC3` showed a % of control in experiment [3] of 96%.
`CNC(=O)Nc1ccc(-c2nc(N3CC4CCC(C3)O4)c3cnn(C4CCC5(CC4)OCCO5)c3n2)cc1` had a % of control in experiment [4] of 100%.
On Misshapen-like kinase 1, `CC[C@@H]1[C@H](F)C(=O)N[C@@H]1COc1nccc2cc(C(N)=O)c(OC)cc12` [ZIMLOVISERTIB] registered a % of inhibition of 18.8%.
As to `C=CC(=O)Nc1ccc(C(=O)Nc2[nH]nc3c2CN(C(=O)N[C@H](CN(C)C)c2ccccc2)C3(C)C)cc1`, the % of engagement in experiment [5] is 2.6%.
